Key:
[1] = test system: AMARE (redroot pigweed); assay: Pre-plant incorporated (PPI) herbicidal activity, warm season; format: in vivo, Amaranthus retroflexus
Description: (§1) In another set of tests, the pre-plant incorporated (PPI) activity of compounds of this invention was evaluated on the same species as for the pre-emergence tests described above. In the PPI tests the following procedure, designed to simulate PPI application, was used.
(§2) A pre-prepared topsoil mixture (described above) was placed in a pot and compacted to a depth of 1.0 to 1.25 cm from the top of the pot. Seeds of each of several monocotyledonous and dicotyledonous annual plant species were placed on top of the soil. A sufficient quantity of soil to cover the seeds and level fill the pot was weighed into an open container. A known amount of the test compound was dissolved or suspended in an organic solvent and applied by spraying to this cover soil. The cover soil was thoroughly mixed to distribute the test compound throughout the cover soil, and was then applied as a cover layer over the seeds. Untreated soil was used as a cover layer for control pots. After treatment the plants were placed in a greenhouse where they received 0.64 cm of overhead irrigation. All subsequent watering consisted of a light overhead mist and/or subirrigation as needed for germination and growth. Tables 9 and 10 below relate to warm season plant species which were placed after pre-emergence treatment in a greenhouse with a 30/21° C. day/night temperature regime. Tables 11 and 12 below relates to cool season plant species placed after pre-emergence treatment in a greenhouse or growth chamber with an 18/13° C. day/night temperature regime. Only the compounds of Examples 1, 6, 8, 11, 13 and 15-20 were included in PPI tests.
(§3) Approximately 14 days after planting and treating, the plants were observed and herbicidal efficacy recorded as percent inhibition by comparison with untreated plants.

[2] = test system: PANMI (wild proso millet); assay: as above; format: in vivo, Panicum miliaceum
Description: as §1, §2, §3

[3] = test system: SETVI (green foxtail); assay: Pre-plant incorporated (PPI) herbicidal activity, cool season; format: in vivo, Setaria viridis
Description: as §1, §2, §3

[4] = test system: AGRRE (quackgrass (seedling)); assay: Post-emergence herbicidal activity, cool season; format: in vivo, Elymus repens; conditions: abraded plants sprayed at 300, 100, 30 and 10 g/ha; about 14 days after treatment
Summary of the method: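 GR80 values derive from percent growth inhibition scored approximately 14 days post-spray against abraded, unsprayed controls under an 18/13 °C regime. Foliar application to sandblast-abraded plants used rates of 300, 100, 30 and 10 g/ha in 50:50 acetone/water at 3,100 l/ha.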

[5] = test system: wheat (TRZAW); assay: Selectivity test, PPI, cool season crop; format: in vivo, Triticum aestivum; conditions: Triticum aestivum, PPI application, read-out: Percent inhibition TRZAW
Description: as §2, §3
Additional pre-emergence and PPI tests were conducted by the procedures described above, on warm and cool season weed species in the presence of crop species, to assess herbicidal selectivity. Crop species included in warm season tests were corn (Zea mays, ZEAMX), rice (Oryza sativa, ORYSA) and soybean (Glycine max, GLYMX). Crop species included in cool season tests were wheat (Triticum aestivum, TRZAW), barley (Hordeunm vulgare, HORVX) and oilseed rape (Brassica napus, BRSNS).
Tables 15 and 16 relate to pre-emergence and PPI tests respectively on warm season species. Table 17 relates to pre-emergence tests on cool season species.

[6] = pre-plant incorporated, lowest tested rate with 80% or greater inhibition, about 14 days

## C=CCC(F)(F)S(=O)(=O)c1ncn(C(=O)N(CC)CC)n1 [Example 17, 1-(N,N-diethylcarbamoyl)-3-[(1,1-difluoro-3-butenyl)sulfonyl]-1,2,4-triazole]
[1]; Amaranthus retroflexus, PPI application, 10 g/ha, read-out: Percent inhibition AMARE
  inhibition at 10 g/ha: 60%
[1]; Amaranthus retroflexus, PPI application, 30 g/ha, read-out: Percent inhibition AMARE
  inhibition at 30 g/ha: 95%
[1]; Amaranthus retroflexus, PPI application, 100 g/ha, read-out: Percent inhibition AMARE
  inhibition at 100 g/ha: 100%
[1]; Amaranthus retroflexus, PPI application, 300 g/ha, read-out: Percent inhibition AMARE
  inhibition at 300 g/ha: 100%
[1]; Amaranthus retroflexus, PPI application, 900 g/ha, read-out: Percent inhibition AMARE
  inhibition at 900 g/ha: 100%
[1]; pre-plant incorporated, GR80 = lowest tested rate with 80% or greater inhibition, approx. 14 days after treating, 30/21° C.
  PPI activity (GR80) AMARE: 10 g/ha
[2]; Panicum miliaceum, PPI application, 10 g/ha, read-out: Percent inhibition PANMI
  inhibition at 10 g/ha: 60%
[2]; Panicum miliaceum, PPI application, 30 g/ha, read-out: Percent inhibition PANMI
  inhibition at 30 g/ha: 100%
[2]; Panicum miliaceum, PPI application, 100 g/ha, read-out: Percent inhibition PANMI
  inhibition at 100 g/ha: 100%
[2]; Panicum miliaceum, PPI application, 300 g/ha, read-out: Percent inhibition PANMI
  inhibition at 300 g/ha: 100%
[2]; Panicum miliaceum, PPI application, 900 g/ha, read-out: Percent inhibition PANMI
  inhibition at 900 g/ha: 100%
[2]; [6]
  PPI activity GR80, PANMI: 10 g/ha
[3]; Setaria viridis, weed, PPI application, 10 g/ha, read-out: Percent inhibition SETVI
  inhibition at 10 g/ha: 40%
[3]; Setaria viridis, weed, PPI application, 30 g/ha, read-out: Percent inhibition SETVI
  inhibition at 30 g/ha: 70%
[3]; Setaria viridis, weed, PPI application, 100 g/ha, read-out: Percent inhibition SETVI
  inhibition at 100 g/ha: 70%
[3]; Setaria viridis, weed, PPI application, 300 g/ha, read-out: Percent inhibition SETVI
  inhibition at 300 g/ha: 100%
[3]; Setaria viridis, weed, PPI application, 900 g/ha, read-out: Percent inhibition SETVI
  inhibition at 900 g/ha: 100%
[3]; [6]
  PPI activity GR80, SETVI: 30 g/ha
[4]
  Post-emergence activity GR80, AGRRE: [empty]
[5]; 10 g/ha
  inhibition at 10 g/ha: 0%
[5]; 30 g/ha
  inhibition at 30 g/ha: 0%
[5]; 100 g/ha
  inhibition at 100 g/ha: 10%
[5]; 300 g/ha
  inhibition at 300 g/ha: 30%
[5]; 900 g/ha
  inhibition at 900 g/ha: 60%
